In PMC6128908, “Potent PDZ-Domain PICK1 Inhibitors that Modulate Amyloid Beta-Mediated Synaptic Dysfunction” (Scientific Reports, 2018):
Where “and” joins values, the source holds several entries; their conditions need not be identical. Identical values can stand only once. Like-named read-outs stand apart in the source and are kept apart here.

Tests used:
PICK1 = PICK1 (Homo sapiens, UniProt Q9NRD5); experiment: PICK1 competition (displacement) assay with tracer BIO424; conditions: for fold more potent than the unsubstituted quinoline: relative to 1u;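 for all read-outs here: in vitro displacement assay with baculovirus-expressed, truncated dimeric PICK1 missing its final 59 residues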
Chain of PICK1 (Q9NRD5 1-356): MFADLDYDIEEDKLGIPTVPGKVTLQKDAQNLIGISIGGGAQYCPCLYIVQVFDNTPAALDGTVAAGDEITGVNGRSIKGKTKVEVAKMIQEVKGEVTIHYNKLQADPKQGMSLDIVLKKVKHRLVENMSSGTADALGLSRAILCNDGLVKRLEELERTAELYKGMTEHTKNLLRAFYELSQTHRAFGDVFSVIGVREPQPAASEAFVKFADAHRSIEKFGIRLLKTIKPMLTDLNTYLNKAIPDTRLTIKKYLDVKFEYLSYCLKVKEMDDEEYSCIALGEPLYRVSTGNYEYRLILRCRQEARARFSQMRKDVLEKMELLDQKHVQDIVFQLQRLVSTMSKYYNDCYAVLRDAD
Procedure: (§1) Fluorescence polarization (FP) and competition binding assays were used to determine PDZ binding affinities and selectivity of compounds as described in Alfonso et al.[20]. Briefly, a fixed concentration (5 nM) of Fluorescein isothiocyanate-labeled peptides comprising the C-terminal amino acids of GluA2 (875–883) and N-methyl-D-aspartate receptor subunit 2B (1474–1482) was used. Binding FP assays were carried out using increasing concentrations of recombinant full-length PICK1, postsynaptic density 95 (PSD95) PDZ 1–2, or Shank3 PDZ, and normalized by subtracting the tracer-only background.
Two recombinant PICK1 constructs were used in this study. […] A truncated, dimeric form of PICK1 lacking the last 59 residues was expressed in baculovirus and purified to homogeneity for use in the in vitro displacement assay. In general, both proteins were purified by Nickel chromatograpy followed by size exclusion chromatography.

Shank3 PDZ = biological target: T1, Shank3 PDZ (Homo sapiens, UniProt Q9BYB0); experiment: Fluorescence polarization selectivity assay, FITC-labeled GKAP peptide; assay type: binding; conditions: Supplemental Fig. 3D
T1 construct: Human Shank3 PDZ domain (residues 663–757); made in house; host or cells: E. coli
T1 sequence (Q9BYB0 646-740 limits assumed): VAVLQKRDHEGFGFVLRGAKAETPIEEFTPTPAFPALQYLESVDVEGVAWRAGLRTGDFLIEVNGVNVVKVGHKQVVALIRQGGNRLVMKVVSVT
Procedure: as §1

GRIP [1] = experiment: PDZ selectivity counter-screen against GRIP; assay type: binding; conditions: data not shown
Excerpt: Having addressed the potency issue for this tool, we then looked into how selective this compound series was for PICK1 over other closely related PDZ domains. Since the ligand GluA2 recognizes both PICK1 and GRIP we were unsure of whether we could get a selective compound. GRIP (6 PDZ domain-containing protein) is the most closely related PDZ domain to PICK1. PSD95 ([…]) and Shank (a single PDZ domain scaffolding molecule), are also important to counter-screen as they are also located in neurons and could be considered a liability if they were inhibited (Supplemental Fig. 3). […] The selectivity observed for compound 1o was also observed for compound 1z[20].

CA1 pyramidal neurons = experiment: Long term depression, whole cell recording in hippocampal slices; assay type: cell-based; conditions: 4 µM internally, low frequency stimulation, wild-type mice hippocampal slices
Procedure: Adult mice aged 8 to 9 weeks were decapitated using a guillotine and sliced at the first cervical vertebra. A cut was made through the skin in the middle of the scalp and the skull plate. The skull plate was separated and the brain was removed, and immediately submerged in iced-cold oxygenated Dissection Buffer (211 mM Sucrose, 2.6 mM KCl, 26 mM NaHCO3, 1.25 mM NaH2PO4, 5 mM MgCl2, 0.5 mM CaCl2, and 10 mM glucose) for 2 minutes. The brain was placed on an ice-cold cutting station and the brain cut along the longitudinal cerebral fissure to separate the two hemispheres. Hemispheres were placed in iced-cold oxygenated Dissection Buffer andand cerebellum was pulled away to reveal the hippocampus. The two hemispheres were arranged so that the hippocampi faced each other like two columns and the whole structure was glued onto a mounting plate, and slices were sectioned at 400 µm thickness and transferred to a holding chamber with oxygenated Recovery Buffer (124 mM NaCl, 3 mM KCl, 26 mM NaHCO3, 1.25 mM NaH2PO4, 2 mM MgSO4, 4 mM CaCl2, 10 mM glucose, and 1 mM kynurenic acid). Slices were allowed to recover for 1–1.5 h at room temperature before electrophysiology experiments. Whole-Cell current-clamp measurements on hippocampal CA1 pyramidal neurons were carried out at 32 to 33 °C. The cells were held at −60 mV potential and schaffer collateral fibers were stimulated. […]

Solubility comparison = assay type: physicochemical; conditions: compared with compound 1z
PK properties in rats = assay type: in vivo
Procedure: We next investigated the PK properties of compound 1z in rats to explore if it represented an appropriate in vivo tool compound. […] Several other compounds within this series were tested for brain penetration and were likewise unable to cross the blood brain barrier.

[2] = system: surface GluA2 in cultured hippocampal neurons; experiment: Surface GluA2 immunostaining in cultured hippocampal neurons; assay type: cell-based, mouse
Procedure: Experiments were conducted in accordance with and received approval from the Institutional Animal Care and Use Committees at Biogen Inc. The experiments were carried out in accordance with guidelines laid down by the NIH regarding the care and use of animals for experimental procedures. Primary hippocampal cultures were prepared from embryonic day 18 rodent brains as described previously. Cells were plated on coverslips coated with poly-D-lysine (30 µg/mL) and laminin (2 µg/mL) at a density of 70, 000 cells per well in 12-well plates. […] Embryonic neuronal cultures were prepared from a minimum of three independent pregnant mice on separate days in all of the studies described, and at least 13 neurons were analyzed for each experimental group. […]
Confocal images of immunostained neurons were obtained using a confocal microscope objective (LSM 710, Zeiss) with sequential acquisition settings at a resolution of 1024 × 1024 pixels. […] All analysis and quantifications were carried out using MetaMorph image analysis software (Universal Imaging Corporation). Dendrites from experimental groups were randomly selected and carefully traced, and the average intensity of fluorescence staining was determined for the traced regions. Intensity measurements are expressed in arbitrary units of fluorescence per square area. Acquisition and quantification of images was blinded. […]

[3] = system: AMPA receptor-dependent calcium influx in hippocampal neurons; experiment: Calcium mobilization assay (FLIPR), Aβ42-treated neurons; assay type: cell-based, mouse; conditions: neurons treated with Aβ42 for 24 hours, 40 μM s-AMPA stimulation
Procedure: Synthetic Aβ42 hexafluoroisopropanol peptide was prepared to the stock concentration of 200 μM by adding 10 μL dimethylsulfoxide to 100 μg of Aβ42 hexafluoroisopropanol pellet and incubating for 30 min at room temperature with occasional mixing. […] The solution was kept at room temperature for 2 h and then used for experiments.
Mouse hippocampal neurons from wild type E16–18 animals were isolated and cultured for 13 days in vitro in Neurobasal media with B27 Supplement, Glutamax, and penicillin/streptomycin (Invitrogen). Neuron cultures were then treated with Aβ in the absence or presence of PICK1 inhibitorsfor 24 hours. Calcium influx was measured using the FLIPR Calcium 4 Assay (Molecular Devices). The cells were loaded with dye for 1 hour at 37 °C and then stimulated with 40 μM s-AMPA (Sigma). Fluorescent recordings were taken using the FLIPR Tetra (Molecular Devices). Baseline measurements before AMPA stimulation were recorded and fluorescent intensity measurements were taken for roughly 3 minutes during and after stimulation. Calcium influx was calculated as the area under the curve and plotted using PRISM GraphPad software.

PSD95 PDZ 1-2 = biological target: T2, PSD95 PDZ 1-2 (Homo sapiens, UniProt P78352); conditions: cited from earlier work
T2 construct: domains 1–2 in tandem; aminoacids 61–249; 8XHis-TEV; made in house; host or cells: E. coli
T2 sequence (P78352 61-249): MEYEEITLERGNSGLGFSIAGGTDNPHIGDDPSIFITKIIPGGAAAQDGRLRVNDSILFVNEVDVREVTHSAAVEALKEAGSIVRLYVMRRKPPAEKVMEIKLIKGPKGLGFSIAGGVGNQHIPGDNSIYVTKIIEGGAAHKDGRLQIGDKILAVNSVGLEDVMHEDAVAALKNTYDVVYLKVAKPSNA

GRIP [4] = conditions: cited from earlier work
[5] = rat, in vivo, 5 mg/kg, suspension (CMC/Tween)

Compound	IC50 (PICK1; IC50, BIO424 as tracer)	other results
CC(C)[C@H](NC(=O)C1(c2ccccc2)CCN(C(=O)[C@@H]2CCCN2C(=O)OC(C)(C)C)CC1)C(=O)O [1a]	19000 nM and 18900 nM	–
CCc1cc(N2CCC(C(=O)N[C@@H](CC3CC3)C(=O)O)(c3ccc(C(F)(F)F)cc3)CC2)c2ncccc2c1 [1w]	269 nM	–
O=C(O)[C@H](CC1CC1)NC(=O)C1(c2ccc(Br)cc2)CCN(Cc2cccc(C(F)(F)F)c2)CC1 [1p]	2560 nM	–
C[C@H](NC(=O)C1(c2ccc(Br)cc2)CCN(C(=O)[C@@H]2CCCN2C(=O)OC(C)(C)C)CC1)C(=O)O [1h]	12100 nM and 12000 nM	–
CC(C)(C)OC(=O)N1CCC[C@H]1C(=O)N1CCC(C(=O)N[C@@H](Cc2c[nH]cn2)C(=O)O)(c2ccc(Br)cc2)CC1 [1k]	> 175000 nM	–
CC(C)[C@H](NC(=O)C1(N2CCOCC2)CCN(C(=O)[C@@H]2CCCN2C(=O)OC(C)(C)C)CC1)C(=O)O [1c]	~175000 nM	–
CC(C)[C@H](NC(=O)C1(Cc2ccccc2)CCN(C(=O)[C@@H]2CCCN2C(=O)OC(C)(C)C)CC1)C(=O)O [1d]	20600 nM	–
CC(C)(C)OC(=O)N1CCC[C@H]1C(=O)N1CCC(C(=O)N[C@H](C(=O)O)C2CCCC2)(c2ccc(Br)cc2)CC1 [1l]	815 nM	–
CC(C)(C)OC(=O)N1CCC[C@H]1C(=O)N1CCC(C(=O)NCC(=O)O)(c2ccc(Br)cc2)CC1 [1g]	> 175000 nM	–
O=C(O)[C@H](CC1CC1)NC(=O)C1(c2ccc(C(F)(F)F)cc2)CCN(c2cc(Br)cc3cccnc23)CC1 [1aa]	75 nM	–
O=C(O)[C@H](CC1CC1)NC(=O)C1(c2ccc(C(F)(F)F)cc2)CCN(c2cc(OC(F)(F)F)cc3cccnc23)CC1 [1ad]	2300 nM	–
O=C(O)[C@H](CC1CC1)NC(=O)C1(c2ccc(C(F)(F)F)cc2)CCN(c2cc(F)cc3cccnc23)CC1 [1y]	626 nM	–
O=C(O)[C@H](CC1CC1)NC(=O)C1(c2ccc(Br)cc2)CCN(Cc2ccccc2C(F)(F)F)CC1 [1o]	573 nM	selectivity for PICK1 over Shank PDZ domain (Shank3 PDZ): selectivity; selectivity for PICK1 over GRIP (GRIP [1]): selectivity
CC(c1ccccc1C(F)(F)F)N1CCC(C(=O)N[C@@H](CC2CC2)C(=O)O)(c2ccc(Br)cc2)CC1 (some centres unmarked) [1r]	1230 nM	induction of long term depression (LTD) (CA1 pyramidal neurons): LTD was not induced; solubility (Solubility comparison): better than compound 1z
COc1cc(N2CCC(C(=O)N[C@@H](CC3CC3)C(=O)O)(c3ccc(C(F)(F)F)cc3)CC2)c2ncccc2c1 [1ac]	563 nM	–
O=C(O)[C@H](CC1CC1)NC(=O)C1(c2ccc(C(F)(F)F)cc2)CCN(c2cc(C(F)(F)F)cc3cccnc23)CC1 [1ab]	104 nM	–
CC(C)[C@H](NC(=O)C1(c2ccc(Br)cc2)CCN(C(=O)[C@@H]2CCCN2C(=O)OC(C)(C)C)CC1)C(=O)O [1e]	4290 nM	–
CC(C)(C)OC(=O)N1CCC[C@H]1C(=O)N1CCC(C(=O)N[C@@H](CC2CC2)C(=O)O)(c2ccc(C(F)(F)F)cc2)CC1 [1n]	–	IC50 (PICK1; IC50 (potency)): 130 nM
O=C(O)[C@H](CC1CC1)NC(=O)C1(c2ccc(C(F)(F)F)cc2)CCN(c2ccccc2)CC1 [1s]	2040 nM	–
Cc1cc(N2CCC(C(=O)N[C@@H](CC3CC3)C(=O)O)(c3ccc(C(F)(F)F)cc3)CC2)c2ncccc2c1 [1v]	348 nM	fold more potent than the unsubstituted quinoline (PICK1): 10 fold
CC(C)[C@H](NC(=O)C1(c2ccc(C(F)(F)F)cc2)CCN(C(=O)[C@@H]2CCCN2C(=O)OC(C)(C)C)CC1)C(=O)O [1f]	1560 nM and 1600 nM	–
O=C(O)[C@H](CC1CC1)NC(=O)C1(c2ccc(C(F)(F)F)cc2)CCN(c2cc(Cl)cc3cccnc23)CC1 [1z]	–	exposure in the brain (brain penetration) (PK properties in rats): no exposure in the brain; AUC (PK properties in rats; [5]): 2920 ng·h/mL; Cmax (PK properties in rats; [5]): 1360 ng/mL; surface GluA2 levels relative to untreated neurons ([2]; 3 μM, 24 hours, cultured hippocampal neurons): increased; total amount of GluA2 in the cytoplasm and on the cell surface ([2]; inhibitor treatment, data not shown): unchanged; effect on Aβ42-induced increase in intracellular calcium concentration [3]: attenuated; selectivity for PICK1 over PSD95 (PSD95 PDZ 1-2): selectivity; selectivity for PICK1 over GRIP (GRIP [4]): selectivity; IC50 (PICK1; IC50 (potency)): 69 nM; fold more potent than the unsubstituted quinoline (PICK1): 67 fold
CC(C)[C@H](NC(=O)C1(C2CCCCC2)CCN(C(=O)[C@@H]2CCCN2C(=O)OC(C)(C)C)CC1)C(=O)O [1b]	17400 nM	–
O=C(O)[C@H](CC1CC1)NC(=O)C1(c2ccc(C(F)(F)F)cc2)CCN(c2cccc3ccccc23)CC1 [1t]	8470 nM	–
O=C(O)[C@H](CC1CC1)NC(=O)C1(c2ccc(C(F)(F)F)cc2)CCN(c2cccc3cccnc23)CC1 [1u]	4600 nM	–
CC(C)c1cc(N2CCC(C(=O)N[C@@H](CC3CC3)C(=O)O)(c3ccc(C(F)(F)F)cc3)CC2)c2ncccc2c1 [1x]	508 nM	–
CC(C)(C)OC(=O)N1CCC[C@H]1C(=O)N1CCC(C(=O)N[C@@H](Cc2c[nH]c3ccccc23)C(=O)O)(c2ccc(Br)cc2)CC1 [1j]	> 175000 nM	–
CC(C)(C)OC(=O)N1CCC[C@H]1C(=O)N1CCC(C(=O)N[C@@H](CC2CC2)C(=O)O)(c2ccc(Br)cc2)CC1 [1m]	718 nM	–
O=C(O)[C@H](CC1CC1)NC(=O)C1(c2ccc(Br)cc2)CCN(Cc2ccc(C(F)(F)F)cc2)CC1 [1q]	5930 nM	–
CC(C)(C)OC(=O)N1CCC[C@H]1C(=O)N1CCC(C(=O)NC(C)(C)C(=O)O)(c2ccc(Br)cc2)CC1 [1i]	> 175000 nM	–
